Common to all, as to assay type: binding
What all share (conditions): Compound Concentration 10 µM

Assay [1] addresses T1, panel of 442 kinases (Homo sapiens, UniProt Q8IVW4).
T1 construct: purchased KINOMEscan
The source says:
(§1) We assessed the selectivity of members of this scaffold using the KINOMEscan methodology across a near comprehensive panel of 442 kinases [[18,27]].

Assay [2] addresses T2, panel of 442 kinases (Homo sapiens, UniProt Q8NEV4).
T2 construct: purchased KINOMEscan
Excerpt: as §1

For assay [3], the target named is T3, panel of 442 kinases (Homo sapiens, UniProt Q9Y2U5).
T3 construct: purchased KINOMEscan
T3 sequence (Q9Y2U5 1-619): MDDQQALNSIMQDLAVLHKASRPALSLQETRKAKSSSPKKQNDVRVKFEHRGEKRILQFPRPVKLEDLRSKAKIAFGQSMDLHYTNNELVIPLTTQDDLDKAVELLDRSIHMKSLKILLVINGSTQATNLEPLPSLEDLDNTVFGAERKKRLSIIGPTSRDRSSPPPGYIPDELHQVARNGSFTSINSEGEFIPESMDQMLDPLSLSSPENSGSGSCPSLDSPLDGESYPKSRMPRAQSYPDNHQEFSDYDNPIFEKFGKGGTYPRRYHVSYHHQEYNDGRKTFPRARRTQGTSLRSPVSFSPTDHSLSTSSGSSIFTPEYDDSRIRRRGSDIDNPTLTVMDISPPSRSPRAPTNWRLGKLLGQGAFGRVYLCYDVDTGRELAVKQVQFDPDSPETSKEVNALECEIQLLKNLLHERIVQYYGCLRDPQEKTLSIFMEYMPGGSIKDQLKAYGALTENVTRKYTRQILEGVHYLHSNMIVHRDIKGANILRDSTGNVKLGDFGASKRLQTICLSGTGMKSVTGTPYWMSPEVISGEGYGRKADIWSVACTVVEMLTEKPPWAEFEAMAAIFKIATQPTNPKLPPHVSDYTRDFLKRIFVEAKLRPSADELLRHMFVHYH
Excerpt: as §1

T2 sequence (Q8NEV4 whole entry): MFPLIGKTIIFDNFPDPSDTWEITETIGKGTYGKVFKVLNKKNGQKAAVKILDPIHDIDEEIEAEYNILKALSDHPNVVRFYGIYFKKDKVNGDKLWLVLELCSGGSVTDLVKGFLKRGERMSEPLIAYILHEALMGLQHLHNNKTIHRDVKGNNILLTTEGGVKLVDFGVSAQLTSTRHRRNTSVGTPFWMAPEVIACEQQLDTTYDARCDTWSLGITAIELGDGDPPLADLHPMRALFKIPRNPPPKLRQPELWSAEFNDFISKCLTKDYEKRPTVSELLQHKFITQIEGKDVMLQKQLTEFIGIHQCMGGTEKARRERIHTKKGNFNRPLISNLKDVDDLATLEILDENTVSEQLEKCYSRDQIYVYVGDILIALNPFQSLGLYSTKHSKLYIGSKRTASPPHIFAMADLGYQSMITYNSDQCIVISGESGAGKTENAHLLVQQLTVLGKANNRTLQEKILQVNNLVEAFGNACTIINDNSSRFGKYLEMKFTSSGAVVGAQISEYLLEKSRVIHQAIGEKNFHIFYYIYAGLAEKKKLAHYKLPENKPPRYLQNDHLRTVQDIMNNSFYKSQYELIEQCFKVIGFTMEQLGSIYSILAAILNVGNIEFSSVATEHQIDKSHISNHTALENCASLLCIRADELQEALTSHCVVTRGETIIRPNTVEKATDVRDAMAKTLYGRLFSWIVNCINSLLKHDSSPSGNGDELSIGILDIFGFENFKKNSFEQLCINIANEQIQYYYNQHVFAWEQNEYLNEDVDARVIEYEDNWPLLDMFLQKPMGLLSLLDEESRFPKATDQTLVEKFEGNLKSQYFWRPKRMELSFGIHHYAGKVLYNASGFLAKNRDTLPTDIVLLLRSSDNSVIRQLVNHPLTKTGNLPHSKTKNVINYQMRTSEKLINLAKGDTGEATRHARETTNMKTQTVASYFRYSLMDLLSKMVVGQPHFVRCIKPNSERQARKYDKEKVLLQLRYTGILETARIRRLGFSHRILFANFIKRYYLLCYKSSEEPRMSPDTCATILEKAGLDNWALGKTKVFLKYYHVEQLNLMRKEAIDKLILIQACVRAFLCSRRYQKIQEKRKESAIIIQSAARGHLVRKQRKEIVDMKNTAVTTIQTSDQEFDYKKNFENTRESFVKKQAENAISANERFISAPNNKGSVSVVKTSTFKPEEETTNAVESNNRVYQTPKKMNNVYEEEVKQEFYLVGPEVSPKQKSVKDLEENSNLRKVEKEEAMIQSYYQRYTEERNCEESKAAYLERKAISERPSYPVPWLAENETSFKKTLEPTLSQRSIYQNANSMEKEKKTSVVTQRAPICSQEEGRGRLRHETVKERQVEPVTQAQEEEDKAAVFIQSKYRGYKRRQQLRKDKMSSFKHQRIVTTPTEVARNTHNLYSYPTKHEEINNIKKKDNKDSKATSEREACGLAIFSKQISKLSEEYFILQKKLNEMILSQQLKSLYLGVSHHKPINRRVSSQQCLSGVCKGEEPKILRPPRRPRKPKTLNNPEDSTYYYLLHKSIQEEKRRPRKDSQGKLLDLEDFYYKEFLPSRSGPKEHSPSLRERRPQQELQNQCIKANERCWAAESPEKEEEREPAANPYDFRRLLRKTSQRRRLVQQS
T1 sequence (Q8IVW4 whole entry): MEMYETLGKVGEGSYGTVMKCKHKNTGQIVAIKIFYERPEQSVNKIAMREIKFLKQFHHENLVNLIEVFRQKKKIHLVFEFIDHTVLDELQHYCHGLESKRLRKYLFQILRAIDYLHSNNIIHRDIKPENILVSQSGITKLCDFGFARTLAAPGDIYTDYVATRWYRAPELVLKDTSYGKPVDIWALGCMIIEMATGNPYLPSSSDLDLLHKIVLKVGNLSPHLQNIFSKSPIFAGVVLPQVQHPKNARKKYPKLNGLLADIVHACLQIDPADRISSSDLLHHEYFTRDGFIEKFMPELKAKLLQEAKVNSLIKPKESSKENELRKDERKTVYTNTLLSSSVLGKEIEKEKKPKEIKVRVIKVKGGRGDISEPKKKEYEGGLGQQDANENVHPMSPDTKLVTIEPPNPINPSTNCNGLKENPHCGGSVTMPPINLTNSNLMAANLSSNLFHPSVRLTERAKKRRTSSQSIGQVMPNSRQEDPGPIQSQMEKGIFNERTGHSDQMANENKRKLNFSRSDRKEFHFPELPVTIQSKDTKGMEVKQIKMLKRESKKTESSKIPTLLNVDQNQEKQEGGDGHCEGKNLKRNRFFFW

In the case of `CCOc1cc(C(=O)N2CCC(N3CCN(C)CC3)CC2)ccc1Nc1ncc2c(n1)N(C1CCCC1)c1ccccc1C(=O)N2C` [Compound 26], the “KINOMEscan: CDKL3” value on panel of 442 kinases [1] turned out to be 99. For the same compound, at panel of 442 kinases [2], the “KINOMEscan: MYO3A” value stood at 100. For the same compound, the “KINOMEscan: MAP3K2” value on panel of 442 kinases [3] is listed as 100.
For the compound `COc1cc(C(=O)N2CCC(N3CCN(C)CC3)CC2)ccc1Nc1ncc2c(n1)N1CCc3cccc(c31)C(=O)N2C` [Compound 24], the “KINOMEscan: CDKL3” value at panel of 442 kinases [1] came to 81.
`COc1cc(C(=O)N2CCC(N3CCN(C)CC3)CC2)ccc1Nc1ncc2c(n1)N(C)c1ccccc1C(=O)N2C` [15 (LRRK2-IN-1)]: at panel of 442 kinases [1], the “KINOMEscan: CDKL3” value was determined as 83. On panel of 442 kinases [2], the “KINOMEscan: MYO3A” value came to 94. Further, at panel of 442 kinases [3], the “KINOMEscan: MAP3K2” value was found to be 97.
On to `COc1cc(C(=O)N2CCC(N3CCN(C)CC3)CC2)ccc1Nc1ncc2c(n1)N(C1CCCC1)c1ccccc1C(=O)N2C` [Compound 25, 11-cyclopentyl-2-((2-methoxy-4-(4-(4-methylpiperazin-1-yl)piperidine-1-carbonyl)phenyl)amino)-5-methyl-5H-benzo[e]pyrimido[5,4-b][1,4]diazepin-6(11H)-one], for which, on panel of 442 kinases [1], the “KINOMEscan: CDKL3” value came out at 73. For the same compound, the “KINOMEscan: MYO3A” value on panel of 442 kinases [2] was 86. Moreover, the “KINOMEscan: MAP3K2” value at panel of 442 kinases [3] was determined as 90.

These data come from publication PMC3914206.
